Assay results reported in BindingDB's records for doi:10.1021/jm00100a033 (Roche Research Center, 1992).
*1 amine or outer side, *2 acyl side, *3 side chain or, on linkers, in order; H or OH if unused. Where a SMILES comes first, the peptide text is derived from it. Side-chain parts run from the residue outwards. [ ]: non-standard residue; d: D form. The star is where a group is joined. ξ: configuration not given here. Thz(5,5-Me2) = CC1(C)SCN[C@@H]1C(=O)O; NH(2-Me-phenyl) = Cc1ccccc1N*; ξF = NC(Cc1ccccc1)C(=O)O; Boc = CC(C)(C)OC(=O)*; CO = O=C([*:1])[*:2]

Biological target: Gastrin/cholecystokinin type B receptor (Bos taurus)
Test: Inhibitory activity against cholecystokinin type B receptor from bovine striatal binding assay

SMILES: Cc1ccccc1NC(=O)NCCCC[C@H](NC(=O)[C@H](Cc1c[nH]c2ccccc12)NC(=O)OC(C)(C)C)C(=O)N1CSC(C)(C)[C@H]1C(=O)NC(Cc1ccccc1)C(N)=O (stereo partly specified) [[1-[1-[4-(1-Carbamoyl-2-phenyl-ethylcarbamoyl)-5,5-dimethyl-thiazolidine-3-carbonyl]-5-(3-o-tolyl-ureido)-pentylcarbamoyl]-2-(1H-indol-3-yl)-ethyl]-carbamic acid tert-butyl ester] (Boc-WK([CO-NH(2-Me-phenyl)])[Thz(5,5-Me2)][ξF]-NH2)
- IC50: 7.4 µM
